Test results from ChEMBL document CHEMBL3352061, “Novel amino-β-lactam derivatives as potent cholesterol absorption inhibitors” (Eur J Med Chem, 2014).

Legend:
[1] = Inhibition of cholesterol uptake in MDCK2 cells at 20 to 100 uM after 1 hr by liquid scintillation counting; format: cell-based, Canis lupus familiaris; conditions: dog, mdck-ii
[2] = Inhibition of cholesterol uptake in MDCK2 cells expressing human NPC1L1 at 20 to 100 uM after 1 hr by liquid scintillation counting; format: cell-based, Canis lupus familiaris; conditions: dog, mdck-ii
[3] = Inhibition of cholesterol uptake in MDCK2 cells expressing human NPC1L1 after 1 hr by liquid scintillation counting; format: cell-based; conditions: Canis lupus familiaris, MDCK-II

| inhibition (INH) [1] | inhibition (INH) [2] | IC50 [3] | SMILES |
| --- | --- | --- | --- |
| Not Active | Active | – | O=C1[C@H](CC[C@H](O)c2ccc(F)cc2)[C@@H](c2ccc(O)cc2)N1c1ccc(F)cc1 [EZETIMIBE] |
| – | – | 60 µM | O=C1[C@H](NC[C@@H](O)c2ccc(F)cc2)[C@@H](c2ccc(O)cc2)N1c1ccc(F)cc1 |
| – | – | 80 µM | O=C1[C@H](NC[C@H](O)c2ccc(F)cc2)[C@@H](c2ccc(O)cc2)N1c1ccc(F)cc1 |
